Data published in ChEMBL document CHEMBL1201862, “PubChem BioAssay data set” (2004).
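Briefly, cells in 96-well plates were exposed to five compound concentrations for 48 h, and endpoints were estimated by linear interpolation. The concentration for 50% growth inhibition is given as GI50.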 The source made the active and inactive calls. No stated cut-off is given here; in the data, active = GI50 up to about 1.1 µM and inactive = higher.

Key:
Assay in all cases: NCI anticancer screen, dose series, 48 h
[1] = test system: DMS-273
[2] = test system: 786-0
[3] = test system: OVCAR-3
[4] = test system: CAKI-1
[5] = test system: SK-OV-3
[6] = test system: XF498
[7] = test system: OVCAR-5
[8] = test system: NCI-H226
[9] = test system: CCRF-CEM
[10] = test system: SK-MEL-5
[11] = test system: TK-10
[12] = test system: RXF 393
[13] = test system: RXF 631
[14] = test system: MOLT-4
[15] = test system: SNB-19
[16] = test system: UACC-257
[17] = test system: HOP-62
[18] = test system: IGROV-1
[19] = test system: OVCAR-4
[20] = test system: K562
[21] = test system: A498
[22] = test system: KM-20L2
[23] = test system: NCI-H23
[24] = test system: COLO 205
[25] = test system: SF-268
[26] = test system: HCT-116
[27] = test system: UACC-62
[28] = test system: HL-60
[29] = test system: U-251
[30] = test system: UO-31
[31] = test system: SN12C
[32] = test system: HCT-15
[33] = test system: HOP-18
[34] = test system: NCI-H522
[35] = test system: LOX IMVI
[36] = test system: SK-MEL-28
[37] = test system: DLD-1
[38] = test system: SR
[39] = test system: SK-MEL-2
[40] = test system: Malme-3M
[41] = test system: EKVX
[42] = test system: A549
[43] = test system: SNB-78
[44] = test system: OVCAR-8
[45] = test system: SW-620
[46] = test system: SF-539
[47] = test system: M14
[48] = test system: SF-295
[49] = test system: HCC 2998
[50] = test system: SNB-75
[51] = test system: KM12
[52] = test system: M19-MEL
[53] = test system: NCI-H460
[54] = test system: LXFL 529
[55] = test system: ACHN
[56] = test system: HT-29
[57] = test system: HOP-92

For CCOC(=N)CC(=O)NC(C)c1ccccc1 (stereo not drawn), which GI50 [1] is on record?
The GI50 was > 100 µM (inactive).

And the GI50 [2]?
The GI50 was > 100 µM (inactive).

What about the GI50 [3] of the same molecule?
The GI50 was > 100 µM (inactive).

And the GI50 [4]?
Its GI50 is > 100 µM (inactive).

And the GI50 [5]?
Its GI50 is > 100 µM (inactive).

And the GI50 [6]?
Its GI50 is > 100 µM (inactive).

And the GI50 [7]?
Its GI50 is > 100 µM (inactive).

What about the GI50 [8] of the same molecule?
Its GI50 is > 100 µM (inactive).

And the GI50 [9]?
The GI50 was > 100 µM (inactive).

What about the GI50 [10] of the same molecule?
The GI50 was > 100 µM (inactive).

And the GI50 [11]?
The GI50 was > 100 µM (inactive).

What about the GI50 [12] of the same molecule?
Its GI50 is > 100 µM (inactive).

And the GI50 [13]?
Its GI50 is > 100 µM (inactive).

And the GI50 [14]?
The GI50 was > 100 µM (inactive).

And the GI50 [15]?
The GI50 was > 100 µM (inactive).

And the GI50 [16]?
Its GI50 is > 100 µM (inactive).

What about the GI50 [17] of the same molecule?
Its GI50 is > 100 µM (inactive).

What about the GI50 [18] of the same molecule?
Its GI50 is > 100 µM (inactive).

What about the GI50 [19] of the same molecule?
The GI50 was > 100 µM (inactive).

What about the GI50 [20] of the same molecule?
Its GI50 is > 100 µM (inactive).

What about the GI50 [21] of the same molecule?
Its GI50 is > 100 µM (inactive).

What about the GI50 [22] of the same molecule?
Its GI50 is > 100 µM (inactive).

And the GI50 [23]?
The GI50 was > 100 µM (inactive).

What about the GI50 [24] of the same molecule?
Its GI50 is > 100 µM (inactive).

And the GI50 [25]?
The GI50 was > 100 µM (inactive).

What about the GI50 [26] of the same molecule?
Its GI50 is > 100 µM (inactive).

What about the GI50 [27] of the same molecule?
The GI50 was > 100 µM (inactive).

What about the GI50 [28] of the same molecule?
The GI50 was > 100 µM (inactive).

And the GI50 [29]?
The GI50 was > 100 µM (inactive).

And the GI50 [30]?
Its GI50 is > 100 µM (inactive).

What about the GI50 [31] of the same molecule?
Its GI50 is > 100 µM (inactive).

What about the GI50 [32] of the same molecule?
Its GI50 is greater than 100 µM.

And the GI50 [33]?
Its GI50 is > 100 µM (inactive).

What about the GI50 [34] of the same molecule?
Its GI50 is > 100 µM (inactive).

What about the GI50 [35] of the same molecule?
The GI50 was > 100 µM (inactive).

What about the GI50 [36] of the same molecule?
Its GI50 is > 100 µM (inactive).

And the GI50 [37]?
The GI50 was > 100 µM (inactive).

What about the GI50 [38] of the same molecule?
The GI50 was > 100 µM (inactive).

What about the GI50 [39] of the same molecule?
The GI50 was > 100 µM (inactive).

And the GI50 [40]?
The GI50 was > 100 µM (inactive).

And the GI50 [41]?
Its GI50 is > 100 µM (inactive).

And the GI50 [42]?
The GI50 was > 100 µM (inactive).

And the GI50 [43]?
Its GI50 is > 100 µM (inactive).

What about the GI50 [44] of the same molecule?
Its GI50 is > 100 µM (inactive).

And the GI50 [45]?
Its GI50 is > 100 µM (inactive).

What about the GI50 [46] of the same molecule?
The GI50 was > 100 µM (inactive).

What about the GI50 [47] of the same molecule?
Its GI50 is > 100 µM (inactive).

And the GI50 [48]?
The GI50 was > 100 µM (inactive).

And the GI50 [49]?
Its GI50 is 87.7 µM (inactive).

And the GI50 [50]?
The GI50 was > 100 µM (inactive).

What about the GI50 [51] of the same molecule?
The GI50 was > 100 µM (inactive).

And the GI50 [52]?
Its GI50 is > 100 µM (inactive).

What about the GI50 [53] of the same molecule?
The GI50 was > 100 µM (inactive).

What about the GI50 [54] of the same molecule?
The GI50 was > 100 µM (inactive).

And the GI50 [55]?
Its GI50 is > 100 µM (inactive).

And the GI50 [56]?
Its GI50 is > 100 µM (inactive).

COC(=O)C(C(=O)Cc1ccccc1[N+](=O)[O-])C(=O)OC was tested. Which GI50 [1] did it give?
Its GI50 is > 100 µM (inactive).

And the GI50 [2]?
The GI50 was > 100 µM (inactive).

And the GI50 [3]?
Its GI50 is > 100 µM (inactive).

And the GI50 [4]?
Its GI50 is > 100 µM (inactive).

And the GI50 [5]?
Its GI50 is > 100 µM (inactive).

And the GI50 [6]?
The GI50 was > 100 µM (inactive).

What about the GI50 [8] of the same molecule?
The GI50 was > 100 µM (inactive).

And the GI50 [9]?
The GI50 was 74.6 µM (inactive).

What about the GI50 [10] of the same molecule?
The GI50 was > 100 µM (inactive).

And the GI50 [11]?
The GI50 was > 100 µM (inactive).

What about the GI50 [12] of the same molecule?
The GI50 was > 100 µM (inactive).

What about the GI50 [57] of the same molecule?
Its GI50 is > 100 µM (inactive).

And the GI50 [13]?
Its GI50 is > 100 µM (inactive).

And the GI50 [14]?
The GI50 was > 100 µM (inactive).

And the GI50 [15]?
Its GI50 is > 100 µM (inactive).

What about the GI50 [16] of the same molecule?
Its GI50 is > 100 µM (inactive).

And the GI50 [17]?
The GI50 was > 100 µM (inactive).

And the GI50 [18]?
The GI50 was > 100 µM (inactive).

And the GI50 [19]?
Its GI50 is > 100 µM (inactive).

And the GI50 [22]?
The GI50 was > 100 µM (inactive).

What about the GI50 [23] of the same molecule?
Its GI50 is > 100 µM (inactive).

And the GI50 [24]?
The GI50 was > 100 µM (inactive).

And the GI50 [25]?
Its GI50 is > 100 µM (inactive).

What about the GI50 [26] of the same molecule?
Its GI50 is > 100 µM (inactive).

What about the GI50 [27] of the same molecule?
Its GI50 is > 100 µM (inactive).

And the GI50 [28]?
The GI50 was 54.5 µM (inactive).

What about the GI50 [30] of the same molecule?
The GI50 was > 100 µM (inactive).

And the GI50 [31]?
The GI50 was > 100 µM (inactive).

What about the GI50 [32] of the same molecule?
The GI50 was greater than 100 µM.

And the GI50 [33]?
Its GI50 is > 100 µM (inactive).

And the GI50 [34]?
Its GI50 is > 100 µM (inactive).

What about the GI50 [35] of the same molecule?
The GI50 was > 100 µM (inactive).

And the GI50 [36]?
Its GI50 is > 100 µM (inactive).

What about the GI50 [37] of the same molecule?
Its GI50 is > 100 µM (inactive).

And the GI50 [38]?
The GI50 was 23.9 µM (inactive).

What about the GI50 [39] of the same molecule?
The GI50 was > 100 µM (inactive).

What about the GI50 [40] of the same molecule?
The GI50 was > 100 µM (inactive).

And the GI50 [41]?
Its GI50 is > 100 µM (inactive).

And the GI50 [42]?
The GI50 was > 100 µM (inactive).

And the GI50 [44]?
Its GI50 is > 100 µM (inactive).

What about the GI50 [45] of the same molecule?
The GI50 was > 100 µM (inactive).

And the GI50 [46]?
Its GI50 is > 100 µM (inactive).

What about the GI50 [47] of the same molecule?
Its GI50 is > 100 µM (inactive).

And the GI50 [48]?
The GI50 was 42.2 µM (inactive).

And the GI50 [49]?
Its GI50 is > 100 µM (inactive).

And the GI50 [50]?
Its GI50 is > 100 µM (inactive).

What about the GI50 [51] of the same molecule?
Its GI50 is > 100 µM (inactive).

What about the GI50 [52] of the same molecule?
Its GI50 is > 100 µM (inactive).

And the GI50 [53]?
The GI50 was > 100 µM (inactive).

And the GI50 [54]?
The GI50 was > 100 µM (inactive).

And the GI50 [55]?
The GI50 was > 100 µM (inactive).

And the GI50 [56]?
The GI50 was > 100 µM (inactive).
